Source: ChEMBL document CHEMBL1155089, “Discovery of an Aurora kinase inhibitor through site-specific dynamic combinatorial chemistry” (Bioorg Med Chem Lett, 2008)

Target: T1, Aurora kinase A (Homo sapiens, UniProt O14965)
T1 sequence (O14965 whole entry): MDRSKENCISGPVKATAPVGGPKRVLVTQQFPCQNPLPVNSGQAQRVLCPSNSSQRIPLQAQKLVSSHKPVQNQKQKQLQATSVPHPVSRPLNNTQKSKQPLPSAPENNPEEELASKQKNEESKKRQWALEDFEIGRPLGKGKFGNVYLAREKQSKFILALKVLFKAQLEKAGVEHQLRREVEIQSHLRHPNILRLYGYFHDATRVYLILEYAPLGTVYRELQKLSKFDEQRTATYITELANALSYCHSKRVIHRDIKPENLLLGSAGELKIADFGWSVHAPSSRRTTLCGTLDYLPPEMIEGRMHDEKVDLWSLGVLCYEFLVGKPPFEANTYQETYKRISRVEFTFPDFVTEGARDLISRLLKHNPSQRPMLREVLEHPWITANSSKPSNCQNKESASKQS
Experiment: Inhibition of Aurora kinase A

SMILES | IC50 [µM]
CCCCCCNc1ncnc2nc[nH]c12 | > 100
CCCCNC(=O)c1cccc(NC(=O)CCCCCCNc2cc(N)ncn2)c1 | 17
CCCCNC(=O)c1cccc(NC(=O)CCCCCNc2ncnc3nc[nH]c23)c1 | 2.9
